Like-named read-outs stand apart in the source and are kept apart here.
How the values were obtained:
Assay in all cases: SelectScreen Kinase Profiling, single point inhibition and IC50 for off-target kinases
Type in all cases: biochemical
off-target kinases [1] = molecular target: off-target kinases (Homo sapiens, UniProt Q86UX6)
off-target kinases [2] = molecular target: off-target kinases (Homo sapiens, UniProt Q9UPE1); conditions: STK23 (MSSK1), ZLYTE, ATP Km app
off-target kinases [3] = molecular target: T1, off-target kinases (Homo sapiens, UniProt O43781); conditions: DYRK3, ZLYTE, ATP Km app
T1 sequence (O43781 1-588): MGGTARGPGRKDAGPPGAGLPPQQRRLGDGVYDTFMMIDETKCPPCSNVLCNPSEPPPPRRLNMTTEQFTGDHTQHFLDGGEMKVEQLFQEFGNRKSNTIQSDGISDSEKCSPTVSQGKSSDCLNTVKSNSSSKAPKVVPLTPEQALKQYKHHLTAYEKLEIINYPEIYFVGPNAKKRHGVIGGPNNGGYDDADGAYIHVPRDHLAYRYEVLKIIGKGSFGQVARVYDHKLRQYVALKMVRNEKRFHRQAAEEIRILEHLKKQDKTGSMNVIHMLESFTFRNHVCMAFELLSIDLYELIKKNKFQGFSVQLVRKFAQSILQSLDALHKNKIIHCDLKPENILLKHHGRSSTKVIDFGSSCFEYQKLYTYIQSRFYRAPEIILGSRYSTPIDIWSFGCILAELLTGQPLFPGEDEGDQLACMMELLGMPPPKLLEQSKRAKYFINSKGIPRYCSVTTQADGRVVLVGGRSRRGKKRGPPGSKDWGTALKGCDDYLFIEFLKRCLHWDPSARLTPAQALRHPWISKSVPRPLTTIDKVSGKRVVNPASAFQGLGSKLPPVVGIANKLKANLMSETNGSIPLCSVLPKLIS

off-target kinases [4] = molecular target: off-target kinases (Homo sapiens, UniProt P00519, Y253F); conditions: ABL1 Y253F, ATP Km app, ZLYTE
off-target kinases [5] = molecular target: T2, off-target kinases (Homo sapiens, UniProt Q8IW41); conditions: MAPKAPK5 (PRAK), ZLYTE, ATP Km app
T2 sequence (Q8IW41 1-473): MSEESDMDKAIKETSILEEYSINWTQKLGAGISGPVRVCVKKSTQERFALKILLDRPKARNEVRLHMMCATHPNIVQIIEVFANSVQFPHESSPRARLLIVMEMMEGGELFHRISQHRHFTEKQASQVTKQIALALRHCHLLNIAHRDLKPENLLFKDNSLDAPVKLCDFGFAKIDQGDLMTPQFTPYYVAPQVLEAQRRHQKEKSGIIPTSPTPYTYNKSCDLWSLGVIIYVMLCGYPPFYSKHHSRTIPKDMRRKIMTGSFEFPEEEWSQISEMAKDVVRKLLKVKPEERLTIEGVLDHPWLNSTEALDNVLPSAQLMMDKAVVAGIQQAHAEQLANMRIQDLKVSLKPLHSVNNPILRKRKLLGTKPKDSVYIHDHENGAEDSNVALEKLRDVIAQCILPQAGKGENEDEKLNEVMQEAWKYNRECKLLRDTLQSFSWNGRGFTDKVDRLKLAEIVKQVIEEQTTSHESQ

off-target kinases [6] = molecular target: off-target kinases (Homo sapiens, UniProt O96017); conditions: CHEK2 (CHK2), ZLYTE, ATP Km app
off-target kinases [7] = molecular target: off-target kinases (Homo sapiens, UniProt Q9H3Y6); conditions: SRMS (Srm), ZLYTE, ATP Km app
off-target kinases [8] = molecular target: off-target kinases (Homo sapiens, UniProt Q9UM73, F1174L); conditions: ALK F1174L, mutant y, LanthaScreen Binding
Sequence of off-target kinases (Homo sapiens, UniProt Q9UM73, F1174L) (Q9UM73 19-1620 F1174L): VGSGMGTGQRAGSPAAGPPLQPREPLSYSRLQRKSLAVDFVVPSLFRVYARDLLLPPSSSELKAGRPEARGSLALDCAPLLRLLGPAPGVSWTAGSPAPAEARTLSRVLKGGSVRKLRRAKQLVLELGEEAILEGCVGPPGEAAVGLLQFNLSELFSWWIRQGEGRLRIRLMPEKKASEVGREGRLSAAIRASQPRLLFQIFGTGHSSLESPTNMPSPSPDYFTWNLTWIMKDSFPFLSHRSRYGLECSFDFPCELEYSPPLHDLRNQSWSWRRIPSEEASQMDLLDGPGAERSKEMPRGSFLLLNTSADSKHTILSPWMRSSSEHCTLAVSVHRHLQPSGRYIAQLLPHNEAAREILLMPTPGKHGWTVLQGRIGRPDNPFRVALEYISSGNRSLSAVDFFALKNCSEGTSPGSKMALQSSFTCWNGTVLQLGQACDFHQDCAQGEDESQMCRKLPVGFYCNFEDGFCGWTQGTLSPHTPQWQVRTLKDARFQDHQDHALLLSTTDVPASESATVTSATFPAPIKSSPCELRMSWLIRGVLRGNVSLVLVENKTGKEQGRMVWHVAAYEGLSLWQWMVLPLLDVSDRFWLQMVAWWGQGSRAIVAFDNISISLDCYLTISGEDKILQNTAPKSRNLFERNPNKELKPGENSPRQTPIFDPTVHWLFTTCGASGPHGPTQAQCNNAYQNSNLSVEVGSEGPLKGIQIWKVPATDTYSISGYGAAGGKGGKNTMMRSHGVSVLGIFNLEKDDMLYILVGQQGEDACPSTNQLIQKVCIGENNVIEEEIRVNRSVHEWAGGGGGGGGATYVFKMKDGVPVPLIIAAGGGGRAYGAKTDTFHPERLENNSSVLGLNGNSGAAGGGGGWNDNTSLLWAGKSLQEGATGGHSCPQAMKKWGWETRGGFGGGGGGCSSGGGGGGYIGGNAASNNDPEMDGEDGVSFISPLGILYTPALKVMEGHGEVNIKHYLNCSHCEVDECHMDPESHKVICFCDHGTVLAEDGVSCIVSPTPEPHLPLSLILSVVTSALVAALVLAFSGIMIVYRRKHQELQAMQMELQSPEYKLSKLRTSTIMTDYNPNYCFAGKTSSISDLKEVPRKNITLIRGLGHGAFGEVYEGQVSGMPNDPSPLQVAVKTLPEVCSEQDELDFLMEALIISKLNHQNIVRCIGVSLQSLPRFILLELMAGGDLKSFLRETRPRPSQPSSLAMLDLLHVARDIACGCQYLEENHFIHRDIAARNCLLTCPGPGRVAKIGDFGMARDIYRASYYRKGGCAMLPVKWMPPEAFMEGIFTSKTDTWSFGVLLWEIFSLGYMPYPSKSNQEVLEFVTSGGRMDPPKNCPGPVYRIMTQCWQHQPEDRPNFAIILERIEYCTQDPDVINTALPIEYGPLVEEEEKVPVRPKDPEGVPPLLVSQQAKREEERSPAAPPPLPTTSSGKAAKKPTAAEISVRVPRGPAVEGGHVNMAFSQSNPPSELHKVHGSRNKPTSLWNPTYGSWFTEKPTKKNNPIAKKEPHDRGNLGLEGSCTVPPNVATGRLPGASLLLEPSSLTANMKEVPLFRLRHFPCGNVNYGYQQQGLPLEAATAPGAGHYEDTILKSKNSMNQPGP

Sequence of off-target kinases (Homo sapiens, UniProt O96017) (O96017 whole entry): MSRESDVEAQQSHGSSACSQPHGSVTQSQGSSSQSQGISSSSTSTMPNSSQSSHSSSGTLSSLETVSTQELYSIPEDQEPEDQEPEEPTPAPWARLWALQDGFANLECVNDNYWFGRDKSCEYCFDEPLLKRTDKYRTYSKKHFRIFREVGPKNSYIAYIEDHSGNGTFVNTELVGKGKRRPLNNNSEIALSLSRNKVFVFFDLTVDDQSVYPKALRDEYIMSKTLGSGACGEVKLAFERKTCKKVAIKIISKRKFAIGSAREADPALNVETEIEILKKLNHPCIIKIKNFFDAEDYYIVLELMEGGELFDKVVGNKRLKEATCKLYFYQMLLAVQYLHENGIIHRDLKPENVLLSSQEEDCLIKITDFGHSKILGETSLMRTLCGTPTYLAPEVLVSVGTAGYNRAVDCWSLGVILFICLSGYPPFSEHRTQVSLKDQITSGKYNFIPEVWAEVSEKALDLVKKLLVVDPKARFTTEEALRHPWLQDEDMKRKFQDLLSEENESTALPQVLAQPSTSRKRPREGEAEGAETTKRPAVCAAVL
Sequence of off-target kinases (Homo sapiens, UniProt Q9H3Y6) (Q9H3Y6 whole entry): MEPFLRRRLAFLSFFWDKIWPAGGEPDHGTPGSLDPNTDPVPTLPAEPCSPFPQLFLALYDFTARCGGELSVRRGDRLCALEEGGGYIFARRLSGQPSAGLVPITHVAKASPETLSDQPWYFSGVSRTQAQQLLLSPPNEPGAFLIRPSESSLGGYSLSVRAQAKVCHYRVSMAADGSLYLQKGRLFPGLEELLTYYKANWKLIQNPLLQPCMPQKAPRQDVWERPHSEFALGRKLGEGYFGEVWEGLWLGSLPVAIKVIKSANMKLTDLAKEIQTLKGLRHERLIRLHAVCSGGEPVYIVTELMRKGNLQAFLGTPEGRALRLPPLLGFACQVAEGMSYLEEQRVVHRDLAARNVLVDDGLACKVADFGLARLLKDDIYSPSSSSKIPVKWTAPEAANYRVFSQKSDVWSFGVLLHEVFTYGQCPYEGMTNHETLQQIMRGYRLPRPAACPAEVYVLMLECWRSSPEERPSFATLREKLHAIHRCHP
Sequence of off-target kinases (Homo sapiens, UniProt Q86UX6) (Q86UX6 whole entry): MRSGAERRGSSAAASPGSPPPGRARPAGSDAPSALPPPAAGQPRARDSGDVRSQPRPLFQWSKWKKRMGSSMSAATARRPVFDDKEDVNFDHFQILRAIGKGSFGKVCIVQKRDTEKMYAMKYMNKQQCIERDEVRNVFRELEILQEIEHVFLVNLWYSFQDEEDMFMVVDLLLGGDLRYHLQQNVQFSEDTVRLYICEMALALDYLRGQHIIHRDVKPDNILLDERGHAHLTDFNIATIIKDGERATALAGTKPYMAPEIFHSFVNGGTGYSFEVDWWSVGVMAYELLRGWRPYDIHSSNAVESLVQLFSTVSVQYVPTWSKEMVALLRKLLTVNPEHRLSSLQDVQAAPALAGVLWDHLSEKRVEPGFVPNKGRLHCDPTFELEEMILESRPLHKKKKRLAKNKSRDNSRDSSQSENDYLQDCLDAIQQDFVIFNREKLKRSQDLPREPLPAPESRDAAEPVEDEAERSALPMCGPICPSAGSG
Sequence of off-target kinases (Homo sapiens, UniProt Q9UPE1) (Q9UPE1 whole entry): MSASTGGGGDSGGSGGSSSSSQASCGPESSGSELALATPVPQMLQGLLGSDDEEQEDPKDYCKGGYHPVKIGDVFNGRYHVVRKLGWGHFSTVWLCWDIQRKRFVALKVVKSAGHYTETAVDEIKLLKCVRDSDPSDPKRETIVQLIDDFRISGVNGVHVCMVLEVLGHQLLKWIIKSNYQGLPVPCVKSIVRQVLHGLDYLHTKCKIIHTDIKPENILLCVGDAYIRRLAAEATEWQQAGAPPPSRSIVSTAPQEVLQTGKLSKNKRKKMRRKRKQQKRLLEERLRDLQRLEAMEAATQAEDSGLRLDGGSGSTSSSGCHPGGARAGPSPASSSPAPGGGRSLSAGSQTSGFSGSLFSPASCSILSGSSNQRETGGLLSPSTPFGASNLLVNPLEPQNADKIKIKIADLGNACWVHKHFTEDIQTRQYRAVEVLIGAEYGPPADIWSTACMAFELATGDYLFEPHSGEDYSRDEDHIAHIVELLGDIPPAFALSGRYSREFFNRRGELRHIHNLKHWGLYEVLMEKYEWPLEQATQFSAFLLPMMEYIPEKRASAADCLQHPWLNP

With `N#Cc1cc(-c2ncnc(Nc3ccc(N4CCN(C5COC5)CC4)cc3)n2)ccc1OC1CCOCC1` [Compound 1, 5-(4-((4-(4-(oxetan-3-yl)piperazin-1-yl)phenyl)amino)-1,3,5-triazin-2-yl)-2-((tetrahydro-2H-pyran-4-yl)oxy)benzonitrile] the inhibition (off-target kinases [1]; STK32C (YANK3), LanthaScreen Binding, read-out: % Inhibition 1) was -4%, the inhibition (off-target kinases [1]; STK32C (YANK3), LanthaScreen Binding, read-out: % Inhibition 2) was 3% and the inhibition (off-target kinases [1]; read-out: % Inhibition Avg) was -1%. The inhibition (off-target kinases [2]; read-out: % Inhibition 1) was 2%, the inhibition (off-target kinases [2]; read-out: % Inhibition 2) was 1% and the inhibition (off-target kinases [2]; read-out: % Inhibition Avg) was 2%. For the same compound, the inhibition (off-target kinases [3]; read-out: % Inhibition 1) was 26%, the inhibition (off-target kinases [3]; read-out: % Inhibition 2) was 24% and the inhibition (off-target kinases [3]; read-out: % Inhibition Avg) was 25%. It also gave an inhibition (off-target kinases [4]; read-out: % Inhibition 1) of 61%, an inhibition (off-target kinases [4]; read-out: % Inhibition 2) of 48% and an inhibition (off-target kinases [4]; read-out: % Inhibition Avg) of 54%. It also gave an inhibition (off-target kinases [5]; read-out: % Inhibition 1) of 6%, an inhibition (off-target kinases [5]; read-out: % Inhibition 2) of 7% and an inhibition (off-target kinases [5]; read-out: % Inhibition Avg) of 6%. It also gave an inhibition (off-target kinases [6]; read-out: % Inhibition 1) of 27%, an inhibition (off-target kinases [6]; read-out: % Inhibition 2) of 27% and an inhibition (off-target kinases [6]; read-out: % Inhibition Avg) of 27%. The inhibition (off-target kinases [7]; read-out: % Inhibition 1) was 5%, the inhibition (off-target kinases [7]; read-out: % Inhibition 2) was 3% and the inhibition (off-target kinases [7]; read-out: % Inhibition Avg) was 4%. For the same compound, the inhibition (off-target kinases [8]; read-out: % Inhibition 1) was 12%, the inhibition (off-target kinases [8]; read-out: % Inhibition 2) was 14% and the inhibition (off-target kinases [8]; read-out: % Inhibition Avg) was 13%.
